In US20250339569A1, “CARBONIC ANHYDRASE IX LIGANDS” (priority 2021, published 2025):

How the values were obtained:
[1] = biological target: T1, CAIX-expressing human HT-29 colorectal cancer cells (Homo sapiens, UniProt Q16790); experiment: FACS binding assay (IC50 determination, competition with tracer 3BP-2776 or 3BP-4149); conditions: FACS binding assay, HT-29 cells, competition with tracer 3BP-2776 (10 nM, biotin-labeled), 4° C., 1 hour; read-out: pIC50 category (activity) (converted)
T1 construct: CAIX-expressing human HT-29 colorectal cancer cells; host or cells: HT-29 human colorectal cancer cells
Outline: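 HT-29 cells in FACS buffer (PBS, 1% FCS) at 500.000 cells/ml were exposed to compounds competing with a labelled tracer, with biotinylated compounds detected by 1 μg/mL APC-streptavidin for 30 min on ice. APC/Cy5 median fluorescence was read by flow cytometry and IC50 derived by 4PL fit.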

[2] = biological target: T2, human carbonic anhydrase IX (hCAIX-Fc) (Homo sapiens, UniProt Q16790); experiment: Surface plasmon resonance assay with hCAIX-Fc; format: binding
T2 construct: purchased SinoBliological (Sino Biological) 10107-H02H

CAIV (hCAIV-bio) = biological target: T3, CAIV (hCAIV-bio) (Homo sapiens, UniProt P22748); experiment: SPR selectivity assay with biotinylated CAIV; format: binding; conditions: SPR, biotinylated CAIV; read-out: pKD category (affinity) CAIV (converted)
T3 construct: purchased SinoBliological (Sino Biological) 10472-1H081H
Method: (§1) In order to test selectivity of CAIX-binding peptides toward CAIV (SinoBliological, Cat #10472-1H081H), CAXII (SinoBliological, Cat #10617-H08H or CAXIV (SinoBliological, Cat #10458-H08H), SPR assays were performed analog to the assay described above but with a different target capture procedure. For immobilization, the carbonic anhydrases were biotinylated and capture on the SPR chip using the Biotin CAPture Kit (cytiva) according to the manufacturer instructions using HBSTE, 0.1% as Running Buffer.
(§2) Table 13 describes the protocol steps for biotinylated target capturing and assessment of the binding kinetics.

CAXII (hCAXII-bio) = biological target: T4, CAXII (hCAXII-bio) (Homo sapiens, UniProt O43570); experiment: SPR selectivity assay with biotinylated CAXII; format: binding; conditions: SPR, biotinylated CAXII; read-out: pKD category (affinity) CAXII (converted)
T4 construct: purchased SinoBliological (Sino Biological) 10617-H08H
Method: as §1, §2

CAXIV (hCAXIV-bio) = biological target: T5, CAXIV (hCAXIV-bio) (Homo sapiens, UniProt Q9ULX7); experiment: SPR selectivity assay with biotinylated CAXIV; format: binding; conditions: SPR, biotinylated CAXIV; read-out: pKD category (affinity) CAXIV (converted)
T5 construct: purchased SinoBliological (Sino Biological) 10458-H08H
Method: as §1, §2

dog CAIX = experiment: Radioligand binding assay, 111In-labeled compounds, CHO-VGT cells with dog CAIX; conditions: 111In-labeled compound, 8 h at 37°C
Method: (§3) In order to assess the affinity of ^111In-labeled compounds to CAIX of different species, a radioligand binding assay was established.
(§4) CHO-VGT cells were transfected with the human, dog, and mouse CAIX (InSCREENex GmbH) and cultured in Ham's F-12 medium (Sigma-Aldrich #N4888) supplemented with 10% fetal bovine serum (FCS), 2 mM L-glutamine, 100 U/mL Penicillin, and 0.1 mg/mL streptomycin. Cells were detached with Accutase (Biolegend #423201) and counted using a particle counter (CASY Model TT; Scharfe Systems, Germany). Cell concentrations were adjusted to 3×10^5 mL^−1, and 1.000 μL of the suspension per well were dispensed into flat-clear-bottom 24 well plates.
(§5) Approximately 24 hours after re-seeding, the medium was aspirated and the cells were washed once with 1000 μL assay medium (Ham's medium without additives). To determine total binding, 700 μL of assay medium and 100 μL of the radioligand dilutions were added to the wells in triplicates. To determine non-specific binding, 600 μL of binding medium, 100 μL of the radioligand dilutions and 100 μL of a blocking solution containing 8 μM non-labeled compound were added to the wells in triplicates. At the end of incubation time (8 h at 37° C.), cells were washed and subsequently harvested in 300 μL RIPA buffer (Thermo Scientific #89901) containing Protease Inhibitor Cocktail Set I (Calbiochem #539131). Radioactivity of the cell lysate of each well was counted using a gamma counter (1470 Wizard, PerkinElmer, USA). An aliquot of each radioligand dilution was included in the gamma counter measurements to allow for determination of their actual concentrations via their known specific activity.

mouse CAIX = biological target: T6, mouse CAIX (Mus musculus, UniProt Q8VHB5); experiment: Radioligand binding assay, 111In-labeled compounds, CHO-VGT cells with mouse CAIX; conditions: 111In-labeled compound, Mouse CAIX, 8 h at 37°C; read-out: pKD category (activity) (converted)
T6 construct: host or cells: CHO-VGT / CHO cells
Method: as §3, §4, §5

human CAIX = human CAIX (Homo sapiens, UniProt Q16790); experiment: Radioligand binding assay, 111In-labeled compounds, CHO-VGT cells with human CAIX; design: host or cells: CHO-VGT / CHO cells; conditions: 111In-labeled compound, Human CAIX, 8 h at 37°C; read-out: pKD category (activity) (converted)
Method: as §3, §4, §5

[3] = Biodistribution study (SPECT/CT) in SK-RC-52 tumor-bearing mice with or without gelofusine; format: in vivo, NMRI nude mice; conditions: female, NMRI nude, mouse, in vivo, iv, total radioactivity
Method: (§6) The effect on tumor uptake of prior injection of gelofusine for kidney protection was investigated in mice bearing the SK-RC-52 tumor. Biodistribution was evaluated using in vivo SPECT/CT imaging. Prior to the in vivo study the compounds (ligands) were initially radiolabeled with In-111 and the stability of radiolabeled compounds was evaluated in buffer at three different timepoints.
(§7) The study was performed in female NMRI nude mice (approximately 6 weeks of age) from Janvier Labs, France, housed up to 5 mice per cage.
(§8) The column was washed with 2 mL water, and then the final product was eluted from the column in EtOH solution (50%) • The sample was formulated in PBS to the final concentration of 150 MBq/mL and 5 nmol/mL.
(§9) SK-RC-52 cells were cultured in RPMI 1640 with GlutaMax-I (Thermo Fisher Scientific #61870044) supplemented with 10% fetal bovine serum+1% penicillin/streptomycin, harvested, washed twice in RPMI 1640 and resuspended at 2×10^7 cells/mL in RPMI 1640. HT-29 cells were cultured in McCoy's 5a Medium Modified (Sigma #M9309). For inoculation of HT-29 cells, cells were harvested, washed twice in PBS and resuspended at 5×10^7 cells/mL in PBS. Cells were kept on ice until inoculation.
(§10) Animals were anaesthetized (isoflurane, 2-4% in ambient air supplemented with 100% 02) prior to tumor inoculation. The tumor cells (100 μL suspension of either SK-RC-52 cells (2×10^6 cells/animal) or HT-29 cells (5×10^6 cells/animal)) were subcutaneously inoculated in the right flank using a 1-mL syringe equipped with a 27 G needle. Tumor growth and animal weight were measured twice per week. Tumor size was measured by caliper and the volume was estimated using the following formula: 0.52×(length×width^2). When tumor sizes reached 150-250 mm^3, animals were randomized into groups (n=3) of similar average tumor volume and body weight.
(§11) Animals were injected intravenously with In-111-labeled compounds (single bolus, 22.3-31.2 MBq, ˜1 nmol ligand, injection volume: 100 μL) in the lateral tail vein using a 29 G syringe.
(§12) CT was performed with helical scan, 300 ms exposure, reconstruction resolution of 250 μm. SPECT was performed with multi-pinhole scan and a 30 s frame time. For the quantification of the radioactivity uptake, regions of interests (ROIs) were drawn over the tumor, kidney, liver, and heart (estimate of blood) identified on the images. Uptake was expressed as percent of injected dose per gram tissue (% ID/g).

SK-RC-52 tumor = experiment: as above; format: in vivo, NMRI nude mice; conditions: mouse, in vivo
Method: as §6, §7, §8, §9, §10, §11, §12

[4] = Biodistribution study (SPECT/CT) in HT-29 tumor-bearing mice; format: in vivo, NMRI nude mice; conditions: female, NMRI nude, mouse, in vivo, iv, total radioactivity
Method: as §6, §7, §8, §9, §10, §11, §12

HT-29 tumor = experiment: as above; format: in vivo, NMRI nude mice; conditions: mouse, in vivo
Method: as §6, §7, §8, §9, §10, §11, §12

[5] = Tumor/Blood uptake ratio at 4 h p.i.
[6] = Tumor/Liver uptake ratio at 4 h p.i.

T6 sequence (Q8VHB5 32-437): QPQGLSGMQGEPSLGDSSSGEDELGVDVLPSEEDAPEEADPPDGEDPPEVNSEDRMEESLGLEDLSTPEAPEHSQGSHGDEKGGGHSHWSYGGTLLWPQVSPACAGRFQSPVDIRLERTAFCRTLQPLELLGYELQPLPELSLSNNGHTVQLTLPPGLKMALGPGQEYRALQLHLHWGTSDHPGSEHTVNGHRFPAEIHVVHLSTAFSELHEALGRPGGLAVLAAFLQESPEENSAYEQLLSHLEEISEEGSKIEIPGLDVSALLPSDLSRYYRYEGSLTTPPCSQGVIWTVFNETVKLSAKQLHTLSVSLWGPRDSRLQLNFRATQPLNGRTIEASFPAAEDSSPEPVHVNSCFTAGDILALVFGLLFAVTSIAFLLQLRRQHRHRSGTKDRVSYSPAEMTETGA
T4 sequence (O43570 25-354): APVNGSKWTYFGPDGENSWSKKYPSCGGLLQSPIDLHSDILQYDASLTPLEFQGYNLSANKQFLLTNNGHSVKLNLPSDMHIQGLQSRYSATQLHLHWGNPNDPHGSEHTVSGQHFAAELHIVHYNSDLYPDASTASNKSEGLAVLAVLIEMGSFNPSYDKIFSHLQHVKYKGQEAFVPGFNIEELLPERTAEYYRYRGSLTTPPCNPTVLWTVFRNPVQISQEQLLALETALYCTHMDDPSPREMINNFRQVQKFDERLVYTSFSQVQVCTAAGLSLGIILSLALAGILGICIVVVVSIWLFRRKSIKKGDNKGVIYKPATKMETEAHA
T5 sequence (Q9ULX7 16-337): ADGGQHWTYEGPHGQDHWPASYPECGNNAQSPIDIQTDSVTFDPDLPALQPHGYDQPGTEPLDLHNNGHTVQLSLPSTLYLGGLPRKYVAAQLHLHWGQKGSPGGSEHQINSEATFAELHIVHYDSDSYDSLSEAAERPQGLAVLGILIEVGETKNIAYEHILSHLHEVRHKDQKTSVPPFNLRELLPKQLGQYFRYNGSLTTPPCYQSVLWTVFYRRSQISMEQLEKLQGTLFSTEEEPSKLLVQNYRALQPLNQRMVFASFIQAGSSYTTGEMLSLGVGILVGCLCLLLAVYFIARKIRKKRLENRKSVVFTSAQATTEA
T3 sequence (P22748 19-284): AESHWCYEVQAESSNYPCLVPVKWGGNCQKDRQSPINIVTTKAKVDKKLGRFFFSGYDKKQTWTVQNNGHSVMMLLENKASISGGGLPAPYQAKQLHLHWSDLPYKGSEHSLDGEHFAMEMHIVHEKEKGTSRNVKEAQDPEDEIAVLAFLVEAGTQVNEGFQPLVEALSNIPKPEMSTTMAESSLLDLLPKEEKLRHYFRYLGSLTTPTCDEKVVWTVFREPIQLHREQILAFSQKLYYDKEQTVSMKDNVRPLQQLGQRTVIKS

With `CC(C)C[C@@H]1NC(=O)[C@H](Cc2ccc(NC(=O)CCS(N)(=O)=O)cc2)NC(=O)[C@H](CC(=O)O)NC(=O)[C@H]2CCCN2C(=O)[C@H](CCC(=O)O)NC(=O)[C@@H](NC(=O)[C@H](CCC(N)=O)NC(=O)CN2CCN(CC(=O)O)CCN(CC(=O)O)CCN(CC(=O)O)CC2)CSCc2cccc(c2)CSC[C@@H](C(N)=O)NC(=O)[C@H](CO)NC(=O)[C@H](Cc2c[nH]c3ccccc23)NC(=O)[C@H]([C@@H](C)O)NC1=O` [3BP-4501, DOTA-Gln-[Cys(3MeBn)-Glu-pro-Asp-Aph(SaPr)-Leu-Thr-Trp-Ser-Cys]-NH2] the IC50 [1] was < 10 nM, the “t1/2 category (activity)” value ([2]; SPR dissociation half-life, hCAIX-Fc, 25° C.) was “A (t1/2>15.0 minutes)” and the “pKD category (affinity) CAIX” value ([2]; SPR, hCAIX) was “A (pKD values >8.0)”. For the same compound, the Kd ([2]; SPR, hCAIX-Fc captured, 25° C., read-out: pKD category (activity) (converted)) was < 10 nM, the Kd (CAIV (hCAIV-bio)) was > 1000 nM and the Kd (CAXII (hCAXII-bio)) was > 1000 nM. For the same compound, the Kd (CAXIV (hCAXIV-bio)) was > 1000 nM, the “pKD category (activity)” value (dog CAIX) was “A (pKD values >8.0)” and the Kd (mouse CAIX) was 10 to 79.4 nM. The Kd (human CAIX) was < 10 nM.

In the case of `CC(C)C[C@@H]1NC(=O)[C@H](Cc2ccc(NC(=O)CCS(N)(=O)=O)cc2)NC(=O)[C@H](CC(=O)O)NC(=O)[C@H]2CCCN2C(=O)[C@H](CCC(=O)O)NC(=O)[C@@H](NC(=O)[C@H](CCC(N)=O)NC(=O)CN2CCN(CC(=O)O)CCN(CC(=O)O)CCN(CC(=O)O)CC2)CSCc2cccc(c2)CSC[C@@H](C(N)=O)NC(=O)[C@H](CO)NC(=O)[C@H](Cc2c[nH]c3ccccc23)NC(=O)[C@H]([C@@H](C)O)NC1=O` [DPI-4501, DOTA-Gln-[Cys(3MeBn)-Glu-pro-Asp-Aph(SaPr)-Leu-Thr-Trp-Ser-Cys]-NH2], the tissue uptake at 4 h ([3]; Blood uptake at 4 h p.i.) is reported as 0.05 ± 0.01 %ID/g, the tissue uptake at 4 h ([3]; Liver uptake at 4 h p.i.) is reported as 0.08 ± 0.01 %ID/g and the tissue uptake ([3]; Peak Tumor Uptake) is reported as 7.17 ± 1.92 %ID/g. The tissue to tissue ratio at 4 h [3, 5] was 128 ± 20.3, the tissue to tissue ratio at 4 h [3, 6] was 70.2 ± 17 and the “Peak Tumor Uptake” value (SK-RC-52 tumor; female, NMRI nude, iv) was 6.01 ± 0.39 % ID/g. The “Blood uptake at 4 h p.i.” value (SK-RC-52 tumor; female, NMRI nude, iv, 4 h) was 0.03 ± 0.003 % ID/g, the “Liver uptake at 4 h p.i.” value (SK-RC-52 tumor; female, NMRI nude, iv, 4 h) was 0.07 ± 0.01 % ID/g and the “Tumor/Blood uptake ratio at 4 h p.i.” value (SK-RC-52 tumor; female, NMRI nude, iv, 4 h) was 178.6 ± 39.3. The “Tumor/Liver uptake ratio at 4 h p.i.” value (SK-RC-52 tumor; female, NMRI nude, iv, 4 h) was 81.4 ± 14.0, the “Time to peak uptake in tumor” value (SK-RC-52 tumor) was 1 h and the tissue uptake at 4 h ([4]; Blood uptake at 4 h p.i.) was 0.04 ± 0.005 %ID/g. It also gave a tissue uptake at 24 h ([4]; Kidney uptake at 24 h p.i.) of 2.16 ± 0.36 %ID/g, a tissue uptake at 4 h ([4]; Liver uptake at 4 h p.i.) of 0.12 ± 0.01 %ID/g and a tissue uptake ([4]; Peak Kidney uptake) of 5.61 ± 0.57 %ID/g. The tissue uptake ([4]; Peak Tumor Uptake) was 3.81 ± 0.26 %ID/g, the tissue to tissue ratio at 4 h [4, 5] was 104 ± 10.2 and the tissue to tissue ratio at 4 h [4, 6] was 29.8 ± 2.5. For the same compound, the tissue to tissue ratio at 24 h ([4]; Tumor/kidney uptake ratio at 24 h p.i.) was 1.5 ± 0.1, the “Time to peak uptake in tumor” value (HT-29 tumor) was 2 h and the “% remaining tumor uptake at 24 h p.i.” value (HT-29 tumor; 24 h) was 80 ± 4.4%.
